According to PubChem BioAssay (NCI):
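Protocol summary: plate cells (96-well), add compound at 5 concentrations, incubate 48 h, interpolate endpoints linearly. TGI: concentration producing complete growth inhibition.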

Legend:
Assay in all cases: DTP human tumour cell line panel, 48 h
[1] = system: HS 578T breast
[2] = system: UACC-62 melanoma
[3] = system: SF-268 CNS
[4] = system: DU-145 prostate
[5] = system: SF-295 CNS
[6] = system: NCI-H522 lung
[7] = system: EKVX NSCLC
[8] = system: HCC-2998 colon
[9] = system: UACC-257 melanoma
[10] = system: TK-10 renal
[11] = system: HOP-92 NSCLC
[12] = system: HL-60(TB) leukemia
[13] = system: MDA-N
[14] = system: NCI-H226 lung
[15] = system: MOLT-4 leukemia
[16] = system: T-47D breast
[17] = system: SK-MEL-28 melanoma
[18] = system: HCT-116 colon
[19] = system: MCF7 breast
[20] = system: 786-0 renal
[21] = system: A498 renal
[22] = system: OVCAR-5 ovarian
[23] = system: SK-MEL-2 melanoma
[24] = system: SN12C renal
[25] = system: LOX IMVI melanoma
[26] = system: OVCAR-3 ovarian
[27] = system: OVCAR-8 ovarian
[28] = system: HT29 colon
[29] = system: U251 CNS
[30] = system: KM12 colon
[31] = system: SF-539 CNS
[32] = system: SK-MEL-5 melanoma
[33] = system: NCI-H460 lung
[34] = system: PC-3 prostate
[35] = system: BT-549 breast
[36] = system: HCT-15 colon
[37] = system: SR leukemia
[38] = system: K-562 leukemia
[39] = system: SW-620 colon
[40] = system: NCI/ADR-RES ovarian
[41] = system: COLO 205 colon
[42] = system: MDA-MB-435
[43] = system: RPMI-8226 leukemia
[44] = system: OVCAR-4 ovarian
[45] = system: M14 melanoma
[46] = system: SNB-75 CNS
[47] = system: SNB-19 CNS
[48] = system: CAKI-1 renal
[49] = system: CCRF-CEM leukemia
[50] = system: ACHN renal
[51] = system: A549 NSCLC
[52] = system: SK-OV-3 ovarian
[53] = system: MALME-3M melanoma
[54] = system: IGROV1 ovarian
[55] = system: NCI-H23 lung
[56] = system: HOP-62 NSCLC
[57] = system: MDA-MB-231 breast
[58] = system: UO-31 renal
[59] = system: RXF 393 renal

`CCCCn1c(C)c(C(=O)OCC)c2cc(OCc3ccc(C(=O)Nn4c(C)ccc4C)cc3)c(Br)cc21` was tested, and the TGI [1] was > 100 µM, the TGI [2] was > 100 µM and the TGI [3] was > 100 µM. For the same compound, the TGI [4] was > 100 µM, the TGI [5] was > 100 µM and the TGI [6] was > 100 µM. For the same compound, the TGI [7] was > 100 µM, the TGI [8] was > 100 µM and the TGI [9] was > 100 µM. For the same compound, the TGI [10] was > 100 µM, the TGI [11] was > 100 µM and the TGI [12] was > 100 µM. For the same compound, the TGI [13] was > 100 µM, the TGI [14] was > 100 µM and the TGI [15] was > 100 µM. For the same compound, the TGI [16] was > 100 µM, the TGI [17] was > 100 µM and the TGI [18] was > 100 µM. For the same compound, the TGI [19] was > 100 µM, the TGI [20] was > 100 µM and the TGI [21] was > 100 µM. For the same compound, the TGI [22] was > 100 µM, the TGI [23] was > 100 µM and the TGI [24] was > 100 µM. For the same compound, the TGI [25] was > 100 µM, the TGI [26] was > 100 µM and the TGI [27] was > 100 µM. The TGI [28] was > 100 µM, the TGI [29] was > 100 µM and the TGI [30] was > 100 µM. The TGI [31] was > 100 µM, the TGI [32] was > 100 µM and the TGI [33] was > 100 µM. For the same compound, the TGI [34] was > 100 µM, the TGI [35] was > 100 µM and the TGI [36] was > 100 µM. For the same compound, the TGI [37] was > 100 µM, the TGI [38] was > 100 µM and the TGI [39] was > 100 µM. The TGI [40] was > 100 µM, the TGI [41] was > 100 µM and the TGI [42] was > 100 µM. The TGI [43] was > 100 µM, the TGI [44] was > 100 µM and the TGI [45] was > 100 µM. For the same compound, the TGI [46] was > 100 µM, the TGI [47] was > 100 µM and the TGI [48] was > 100 µM. For the same compound, the TGI [49] was > 100 µM, the TGI [50] was > 100 µM and the TGI [51] was > 100 µM. For the same compound, the TGI [52] was > 100 µM, the TGI [53] was > 100 µM and the TGI [54] was > 100 µM. The TGI [55] was > 100 µM and the TGI [56] was > 100 µM.

For `CC(=O)OCC1OC(N2C(c3ccccc3)=CC(c3ccccc3)C(C#N)=C2S)C(OC(C)=O)C(OC(C)=O)C1OC(C)=O` (stereo unspecified), the TGI [1] was 29.8 µM, the TGI [2] was 7.67 µM and the TGI [3] was 19.6 µM. The TGI [4] was > 100 µM, the TGI [5] was 10.1 µM and the TGI [6] was 28.6 µM. The TGI [8] was > 100 µM, the TGI [9] was 16.5 µM and the TGI [10] was 50.1 µM. For the same compound, the TGI [11] was 16.6 µM, the TGI [12] was > 100 µM and the TGI [13] was 15.1 µM. The TGI [14] was > 100 µM, the TGI [15] was > 100 µM and the TGI [16] was > 24.3 µM. For the same compound, the TGI [17] was > 100 µM, the TGI [18] was > 65.6 µM and the TGI [19] was > 65.4 µM. The TGI [20] was 9.85 µM, the TGI [21] was 44.2 µM and the TGI [22] was > 100 µM. For the same compound, the TGI [23] was 16.8 µM, the TGI [24] was 15.7 µM and the TGI [25] was > 42.5 µM. For the same compound, the TGI [26] was > 63.1 µM, the TGI [27] was 24.2 µM and the TGI [28] was > 82.5 µM. For the same compound, the TGI [29] was 16.2 µM, the TGI [30] was > 44.9 µM and the TGI [31] was 16.2 µM. For the same compound, the TGI [32] was 9.98 µM, the TGI [33] was > 49.5 µM and the TGI [57] was > 40.8 µM. The TGI [35] was 20.6 µM, the TGI [36] was > 100 µM and the TGI [37] was > 100 µM. The TGI [38] was > 100 µM, the TGI [39] was > 100 µM and the TGI [40] was > 100 µM. For the same compound, the TGI [42] was > 40.2 µM, the TGI [43] was > 100 µM and the TGI [44] was > 31.6 µM. The TGI [45] was 74 µM, the TGI [46] was 54.2 µM and the TGI [47] was 26.5 µM. For the same compound, the TGI [58] was 51 µM, the TGI [48] was 7.73 µM and the TGI [49] was > 100 µM. For the same compound, the TGI [59] was 12.9 µM, the TGI [50] was 27 µM and the TGI [51] was > 46.4 µM. For the same compound, the TGI [53] was 28.3 µM, the TGI [54] was > 52.9 µM and the TGI [55] was 40.5 µM. It also gave a TGI [56] of 17.9 µM.
